According to patent US20250144067A1, “PERSONALIZED STARVATION THERAPY FOR CANCER” (Faeth Therapeutics, Inc., priority 2021, published 2025):
Structures can show the parent of a compound that is named as a salt. Where two headings read alike, the source gives them in different places.

Experiments:
[1] = tested on: NCI-H292 lung cancer cells; experiment: FDA drug screening, complete media vs cholesterol-free media without statin (TABLE 1); assay type: cell-based, human
[2] = tested on: NCI-H292 lung cancer cells; experiment: FDA drug screening, complete media vs cholesterol-free media with simvastatin (TABLE 2); assay type: cell-based, human
[3] = Complete minus Cholesterol-free, greater than 0 enhanced anti-cancer activity, about 0 neutral, below 0 antagonists
[4] = NCI-H292 cells in cholesterol-free media without statin
[5] = NCI-H292 cells in complete media
[6] = NCI-H292 cells, cholesterol-free media with simvastatin 0.04 μM, FDA drug library screen (TABLE 2)
[7] = NCI-H292 cells, complete media, FDA drug library screen (TABLE 2)
[8] = NCI-H292 cells, cholesterol-free media without statin
[9] = NCI-H292 cells, drug in cholesterol-free media with simvastatin 0.04 μM
[10] = NCI-H292 cells, drug in complete media
[11] = complete media vs cholesterol-free media + simvastatin (0.04 μM), […]
[12] = complete media vs cholesterol-free media + simvastatin (0.04 μM), >0 enhanced anti-cancer activity, about 0 neutral, <0 antagonist
[13] = NCI-H292 cells, cholesterol-free media without statin, FDA drug library screen
[14] = complete vs cholesterol-free media, >0 enhanced anti-cancer activity, about 0 neutral, <0 antagonist
[15] = NCI-H292 cells, FDA drug library screen, cholesterol-free media with simvastatin 0.04 μM
[16] = NCI-H292 cells, FDA drug library screen, complete media
[17] = complete media minus cholesterol-free media + simvastatin, >0 enhanced anti-cancer activity, about 0 neutral, <0 antagonist
[18] = Complete minus Cholesterol-free, […]
[19] = NCI-H292 cells, FDA drug library screen, cholesterol-free media without statin
[20] = Complete minus Cholesterol-free, greater than 0 enhanced anti-cancer activity, about 0 neutral, below 0 antagonist
[21] = NCI-H292 cells, FDA library drug in cholesterol-free media with simvastatin 0.04 μM
[22] = NCI-H292 cells, FDA library drug in complete media
[23] = NCI-H292 cells, complete media, FDA drug library screen
[24] = NCI-H292 cells, cholesterol-free media with simvastatin 0.04 μM, cell growth value in FDA drug screen
[25] = NCI-H292 cells, complete media, cell growth value in FDA drug screen
[26] = Complete minus Cholesterol-free, >0 enhanced anti-cancer activity, about 0 neutral, <0 antagonist

## CC[C@H]1OC(=O)[C@H](C)C(=O)[C@H](C)[C@@H](O[C@@H]2O[C@H](C)C[C@H](N(C)C)[C@H]2O)[C@](C)(OC)C[C@@H](C)C(=O)[C@H](C)[C@H]2N(CCCCn3cnc(-c4cccnc4)c3)C(=O)O[C@]12C [Telithromycin]
[1]; [3]
  Difference: −0.51
[1]; [4]
  Cholesterol-free: 1.316
[1]; [5]
  Complete: 0.8019
[2]; [6]
  Cholesterol-free media + simvastatin (0.04 μM): 0.872
[2]; [7]
  Complete Media: 0.854
[2]; complete media minus cholesterol-free media + simvastatin (0.04 μM), >0 enhanced anti-cancer activity, about 0 neutral, <0 antagonist
  Difference: −0.02

## O[C@H]([C@H](O)[C@@H]1CO1)[C@H]1CO1 [VAL-083]
[1]; [8]
  Cholesterol-free: 1.036
[1]; NCI-H292 cells, complete media
  Complete: 0.6339
[1]; complete vs cholesterol-free media, […]
  Difference: −0.40
[2]; [9]
  Cholesterol-free media + simvastatin (0.04 μM): 0.879
[2]; [10]
  Complete Media: 0.7017
[2]; [11]
  Difference: −0.18

## COC1=CC(=O)C[C@@H](C)[C@]12Oc1c(Cl)c(OC)cc(OC)c1C2=O [Griseofulvin]
[1]; [3]
  Difference: −0.63
[1]; [4]
  Cholesterol-free: 1.326
[1]; [5]
  Complete: 0.6963
[2]; [9]
  Cholesterol-free media + simvastatin (0.04 μM): 1.385
[2]; [10]
  Complete Media: 1.224
[2]; [12]
  Difference: −0.16

## Oc1c(I)cc(Cl)c2cccnc12 [Clioquinol]
[1]; [13]
  Cholesterol-free: 0.6089
[1]; [14]
  Difference: 0.57
[2]; [15]
  Cholesterol-free media + simvastatin (0.04 μM): 1.168
[2]; [16]
  Complete Media: 1.009
[2]; [12]
  Difference: −0.16

## Cc1ccc(Cl)c(Nc2ccccc2C(=O)O)c1Cl [Meclofenamate (sodium)]
[1]; [3]
  Difference: −0.59
[1]; [4]
  Cholesterol-free: 1.453
[1]; [5]
  Complete: 0.8579
[2]; [15]
  Cholesterol-free media + simvastatin (0.04 μM): 1.009
[2]; [16]
  Complete Media: 1.718
[2]; [17]
  Difference: 0.71

## Cc1c(C(=O)Nc2ccc(S(C)(=O)=O)cc2)cn(CCO)c1-c1ccccc1C(F)(F)F [Esaxerenone]
[1]; [18]
  Difference: −0.14
[1]; [19]
  Cholesterol-free: 1.29
[2]; [6]
  Cholesterol-free media + simvastatin (0.04 μM): 0.9763
[2]; [7]
  Complete Media: 0.9118
[2]; complete media minus cholesterol-free media + simvastatin (0.04 μM), […]
  Difference: −0.06

## CC(=O)N[C@@H](Cc1ccc(O)cc1)C(=O)O [N-Acetyl-L-tyrosine]
[1]; [20]
  Difference: −0.16
[1]; [19]
  Cholesterol-free: 1.221
[1]; [16]
  Complete: 1.059
[2]; [15]
  Cholesterol-free media + simvastatin (0.04 μM): 1.348
[2]; [16]
  Complete Media: 1.218
[2]; [12]
  Difference: −0.13

## Cc1cccc(C)c1NC(=O)C1CCCCN1C (stereo not shown) [Mepivacaine (hydrochloride)]
[1]; [3]
  Difference: −0.61
[1]; [4]
  Cholesterol-free: 1.413
[1]; [5]
  Complete: 0.805
[2]; [15]
  Cholesterol-free media + simvastatin (0.04 μM): 1.253
[2]; [16]
  Complete Media: 1.396
[2]; [17]
  Difference: 0.14

## CC1(C)CCC(CN2CCN(c3ccc(C(=O)NS(=O)(=O)c4ccc(NCC5CCOCC5)c([N+](=O)[O-])c4)c(Oc4cnc5[nH]ccc5c4)c3)CC2)=C(c2ccc(Cl)cc2)C1 [Venetoclax]
[1]; [3]
  Difference: −0.58
[1]; [4]
  Cholesterol-free: 1.517
[1]; [5]
  Complete: 0.9332
[2]; [15]
  Cholesterol-free media + simvastatin (0.04 μM): 1.767
[2]; [16]
  Complete Media: 1.658
[2]; [12]
  Difference: −0.11

## Cc1cc(NS(=O)(=O)c2ccc(N)cc2)nc(C)n1 [Sulfisomidin]
[1]; [18]
  Difference: −0.21
[1]; [8]
  Cholesterol-free: 1.055
[1]; NCI-H292 cells, complete media
  Complete: 0.8471
[2]; [21]
  Cholesterol-free media + simvastatin (0.04 μM): 1.147
[2]; [22]
  Complete Media: 0.7862
[2]; [11]
  Difference: −0.36

## CC(C)=CCC[C@](C)(O)[C@H]1CC[C@]2(C)[C@@H]1[C@H](O)C[C@@H]1[C@@]3(C)CC[C@H](O[C@@H]4O[C@H](CO)[C@@H](O)[C@H](O)[C@H]4O[C@@H]4O[C@H](CO)[C@@H](O)[C@H](O)[C@H]4O)C(C)(C)[C@@H]3CC[C@]12C [20(S)-Ginsenoside Rg3]
[1]; [18]
  Difference: −0.21
[1]; [8]
  Cholesterol-free: 1.062
[1]; NCI-H292 cells, complete media
  Complete: 0.8564
[2]; [21]
  Cholesterol-free media + simvastatin (0.04 μM): 1.721
[2]; [22]
  Complete Media: 1.403
[2]; [11]
  Difference: −0.32

## O=C(O)c1ccccc1 [Benzoic acid]
[1]
  Cholesterol-free: 1.119
  Complete: 1.063
  Difference: −0.06
[2]
  Cholesterol-free media + simvastatin (0.04 μM): 1.277
  Difference: −0.11

## C[C@H]1C(=O)O[C@@H]2CCN3CC=C(COC(=O)[C@](C)(O)[C@]1(C)O)[C@H]23 [Monocrotaline]
[1]; [18]
  Difference: −0.18
[1]; [19]
  Cholesterol-free: 1.01
[1]; [16]
  Complete: 0.8289
[2]; [9]
  Cholesterol-free media + simvastatin (0.04 μM): 1.209
[2]; [10]
  Complete Media: 1.046
[2]; [11]
  Difference: −0.16

## NC(=O)c1ncn([C@@H]2O[C@H](CO)[C@@H](O)[C@H]2O)n1 [Ribavirin]
[1]; [20]
  Difference: −0.11
[1]; [19]
  Cholesterol-free: 0.8402
[1]; [16]
  Complete: 0.7281
[2]; [9]
  Cholesterol-free media + simvastatin (0.04 μM): 0.9314
[2]; [10]
  Complete Media: 0.6899
[2]; [12]
  Difference: −0.24

## O=C(CCC/C=C\C[C@@H]1[C@@H](CC[C@@H](O)CCc2ccccc2)[C@H](O)C[C@@H]1O)OCCCCO[N+](=O)[O-] [Latanoprostene bunod]
[1]; [13]
  Cholesterol-free: 0.8229
[1]; [23]
  Complete: 1.464
[1]; [14]
  Difference: 0.64
[2]; [15]
  Cholesterol-free media + simvastatin (0.04 μM): 1.139
[2]; [16]
  Complete Media: 1.004
[2]; [12]
  Difference: −0.14

## CC1(C)S[C@@H]2[C@H](/N=C/N3CCCCCC3)C(=O)N2[C@H]1C(=O)O [Mecillinam]
[1]; [20]
  Difference: −0.15
[1]; [19]
  Cholesterol-free: 0.9011
[1]; [16]
  Complete: 0.7528
[2]; [15]
  Cholesterol-free media + simvastatin (0.04 μM): 1.033
[2]; [16]
  Complete Media: 1.74
[2]; [17]
  Difference: 0.71

## Cc1ccc([C@@H]2O[C@H](CO)[C@@H](O)[C@H](O)[C@H]2O)cc1Cc1ccc(-c2ccc(F)cc2)s1.O [Canagliflozin (hemihydrate)]
[1]; [18]
  Difference: −0.51
[1]; [4]
  Cholesterol-free: 1.347
[1]; [5]
  Complete: 0.8359
[2]; [21]
  Cholesterol-free media + simvastatin (0.04 μM): 1.34
[2]; [22]
  Complete Media: 0.8924
[2]; [11]
  Difference: −0.45

## CN(C(=O)CN(CCO)CC(=O)N(C)C(C)(C)Cc1ccccc1)C(C)(C)Cc1ccccc1 [Oxethazaine]
[1]; [3]
  Difference: −1.45
[1]; [4]
  Cholesterol-free: 2.442
[1]; [5]
  Complete: 0.9966
[2]; [15]
  Cholesterol-free media + simvastatin (0.04 μM): 1.131
[2]; [16]
  Complete Media: 0.9874
[2]; [12]
  Difference: −0.14

## COCCCN1CCC(NC(=O)c2cc(Cl)c(N)c3c2OCC3)CC1 [Prucalopride]
[1]; [3]
  Difference: −0.49
[1]; [4]
  Cholesterol-free: 1.522
[1]; [5]
  Complete: 1.033
[2]; [24]
  Cholesterol-free media + simvastatin (0.04 μM): 0.8751
[2]; [25]
  Complete Media: 0.9854
[2]; [17]
  Difference: 0.11

## COc1cc(C(C)=O)ccc1OCCCN1CCC(c2noc3cc(F)ccc23)CC1 [Iloperidone]
[1]; [26]
  Difference: −0.06
[1]; [23]
  Complete: 0.8863
[2]; [15]
  Cholesterol-free media + simvastatin (0.04 μM): 0.9523
[2]; [16]
  Complete Media: 1.134
[2]; [17]
  Difference: 0.18

## CCCc1nn(C)c2c(=O)[nH]c(-c3cc(S(=O)(=O)N4CCN(CCO)CC4)ccc3OCC)nc12 [Lodenafil]
[1]; [26]
  Difference: −0.27
[1]; [8]
  Cholesterol-free: 0.8421
[1]; NCI-H292 cells, complete media
  Complete: 0.5699
[2]; [24]
  Cholesterol-free media + simvastatin (0.04 μM): 0.819
[2]; [25]
  Complete Media: 0.8488
[2]; [17]
  Difference: 0.03

## COc1ccc(/C=C/C(=O)Nc2ccccc2C(=O)O)cc1OC [trans-Tranilast]
[1]; [18]
  Difference: −0.10
[1]; [16]
  Complete: 0.8406
[2]; [9]
  Cholesterol-free media + simvastatin (0.04 μM): 1.144
[2]; [10]
  Complete Media: 0.9085
[2]; [11]
  Difference: −0.24
